We go through 38 compounds from ChEMBL document CHEMBL1800013, “Small molecule inhibitors of SHP2 tyrosine phosphatase discovered by virtual screening” (Bioorg Med Chem Lett, 2011).

SMILES strings stand for the structures. pIC50: −log10 of the molar value. Active and inactive are the calls of the source. The calls are words filed in the database; no cut-off is given here.

The first assay deals with T1, Tyrosine-protein phosphatase non-receptor type 11 (Homo sapiens) (UniProt Q06124).
T1 sequence (whole entry): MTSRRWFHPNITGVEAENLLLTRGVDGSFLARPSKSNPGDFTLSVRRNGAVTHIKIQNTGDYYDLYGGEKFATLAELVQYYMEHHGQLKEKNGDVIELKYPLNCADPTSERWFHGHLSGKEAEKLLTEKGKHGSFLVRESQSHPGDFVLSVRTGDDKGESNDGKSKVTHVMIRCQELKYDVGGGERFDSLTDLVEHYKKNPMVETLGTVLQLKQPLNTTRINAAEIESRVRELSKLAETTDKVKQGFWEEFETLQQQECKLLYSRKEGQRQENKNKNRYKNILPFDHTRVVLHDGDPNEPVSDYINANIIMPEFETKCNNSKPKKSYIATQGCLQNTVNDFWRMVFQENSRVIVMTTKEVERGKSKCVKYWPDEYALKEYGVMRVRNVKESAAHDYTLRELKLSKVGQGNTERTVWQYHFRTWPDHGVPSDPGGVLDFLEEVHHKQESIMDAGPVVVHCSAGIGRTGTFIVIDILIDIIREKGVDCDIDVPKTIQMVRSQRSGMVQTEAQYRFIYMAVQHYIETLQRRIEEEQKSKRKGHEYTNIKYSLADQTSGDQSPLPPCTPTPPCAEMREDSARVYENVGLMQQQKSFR
The assay can be described thus: Inhibition of SHP2 catalytic domain assessed as inhibition of pNPP to p-nitrophenol conversion at 1000 uM after 5 mins by spectrophotometry.
By inhibition is commonly meant the drop in the measured response relative to a control, in per cent. As for `O=C(O)C1=NN(c2ccccc2)C(=O)C1`, the inhibition entry was “inactive”.
Same read-out and setting: in the case of `CC1=NN(c2ccc(S(=O)(=O)O)cc2C)C(=O)C1` it was “inactive”.

The target of a further assay is T1, Tyrosine-protein phosphatase non-receptor type 11 (Homo sapiens). The assay can be described thus: Inhibition of SHP2 catalytic domain assessed as inhibition of pNPP to p-nitrophenol conversion at 50 uM after 5 mins by spectrophotometry.
Regarding `O=C(O)c1ccc(/N=N/c2c(O)c(C(=O)O)cc3ccccc23)cc1`, the inhibition amounted to 8.5%.
Still for that read-out and setting: in the case of `O=C(O)c1ccccc1NC(=O)c1ccccc1-c1ccccc1C(=O)O` it was 38%; in that of `COc1cc(/C=C2\SC(=S)N(C(CC(=O)O)C(=O)O)C2=O)ccc1O` (centres undefined), 69.5%; in that of `CC(=O)Nc1ccc(OS(=O)(=O)c2cccc(C(=O)O)c2)cc1`, 3.5%.
On the same count and under the same terms, under `Cc1ccc(/C=C/C(=O)O)cc1S(=O)(=O)Nc1ccc(C(=O)O)cc1` stands 28%.
Regarding `O=C(O)c1ccc(CNS(=O)(=O)c2ccc(C(=O)O)cc2)cc1`, the inhibition came out at 40.5%.
For the compound `O=C(O)c1cccc(NS(=O)(=O)c2ccc(Cl)c(C(=O)O)c2)c1`, the inhibition was found to be 7%.
Same read-out and setting: in the case of `COc1ccc(C2Nc3ccc(C(=O)O)cc3C3C=CCC32)cc1[N+](=O)[O-]` (centres undefined) it was 1.5%; in that of `O=C(O)c1ccc(NCc2ccccc2)c(NC(=O)C2CC=CCC2C(=O)O)c1` (centres undefined), 43%.
Same read-out and setting: under `COc1ccc(/C=C2\C(=O)N(c3ccc(C(=O)O)cc3)N=C2C)cc1[N+](=O)[O-]` stands 41%; under `O=C(O)c1ccccc1NS(=O)(=O)c1cccc(C(=O)N2CCCc3ccccc32)c1`, 47%; under `O=[N+]([O-])c1ccc(/C=N/Nc2ccc(S(=O)(=O)O)cc2)cc1`, 91.5%.
Same read-out and setting: in the case of `O=C(O)c1cccc(-c2ccc(/C=C/[N+](=O)[O-])o2)c1` it was 95%.
As for `O=C(O)c1ccccc1NS(=O)(=O)c1cccc2nsnc12`, the inhibition came out at 0%.
On the same count and under the same terms, in the case of `Cc1cc(C(=O)O)ccc1NC(=O)C1CC=CCC1C(=O)O` (centres undefined) it was 13%.
On to `Cc1ccc(C(=O)O)cc1NC(=O)[C@H]1CC=CC[C@@H]1C(=O)O`, for which the inhibition stood at 6%.
Take `O=C(O)Cc1c(C(=O)O)[nH]c2ccc(C(=O)O)cc12`: the inhibition amounted to 1%.
`O=C(O)c1ccc(C2(c3ccc(C(=O)O)cc3)OC(=O)c3ccccc32)cc1`: the inhibition stood at 1.5%.
Regarding `CC(=O)c1c(C)oc2ccc(NS(=O)(=O)c3cccc(C(=O)O)c3)cc12`, the inhibition turned out to be 71.5%.
Same read-out and setting: in the case of `CCOc1cc(/C=N/Nc2ccc(S(=O)(=O)O)cc2)ccc1O` it was 51%.
The same measure, in the same setting: in the case of `CC1CCN(S(=O)(=O)c2ccc3[nH]cc(C(=O)O)c(=O)c3c2)CC1` it was 0.5%.
For the compound `O=C(O)c1cccc(N/C(=N\S(=O)(=O)c2ccc(Cl)cc2)c2ccccc2)c1`, the inhibition turned out to be 10.5%.
Same read-out and setting: in the case of `O=C(O)c1ccc(NC(=O)C2CC=CCC2C(=O)O)cc1O` (centres undefined) it was 4.5%.
Still for that read-out and setting: in the case of `O=C(O)c1ccc(NS(=O)(=O)c2cc(C(=O)O)ccc2Br)cc1` it was 34.5%; in that of `CS(=O)(=O)N(CC(=O)Nc1ccccc1C(=O)O)c1ccc(F)cc1`, 24%.
Regarding `O=C(O)c1cccc(NS(=O)(=O)c2ccc3c4c(cccc24)C(=O)N3)c1`, the inhibition came out at 4.5%.
For `O=C(O)c1cc(S(=O)(=O)Nc2ccccc2C(=O)O)ccc1Br`, the inhibition came out at 4.5%.
On the same count and under the same terms, under `O=C(O)c1ccc(NS(=O)(=O)c2cccc(C(=O)Nc3cccc(C(=O)O)c3)c2)cc1` stands 44%; under `Cc1ccccc1NS(=O)(=O)c1cccc(C(=O)Nc2ccccc2C(=O)O)c1`, 50.5%.
The same measure, in the same setting: under `CC(=O)N(c1ccc2oc3c(c2c1)CCCC3)S(=O)(=O)c1ccc(C(=O)O)cc1` stands 74.5%; under `O=C(O)c1cc(N/C(=N\S(=O)(=O)c2ccccc2)c2ccccc2)ccc1O`, 12.5%.
Take `O=C(CC(Cc1ccccc1)C(=O)O)Nc1ccc([N+](=O)[O-])cc1` (centres undefined): the inhibition came to 1%.
For `O=C(O)Cc1ccc2[nH]c3ccc(CC(=O)O)cc3c2c1`, the inhibition was found to be 52.5%.
On the same count and under the same terms, under `O=C(O)/C=C/c1cccc(NS(=O)(=O)c2ccc(C(=O)O)cc2)c1` stands 5.5%.

The next assay deals with T2, Tyrosine-protein phosphatase non-receptor type 11 (Homo sapiens, UniProt Q06124).
T2 sequence (Q06124 whole entry): T1 sequence (whole entry)
The assay can be described thus: Inhibition of SHP2 catalytic domain assessed as inhibition of pNPP to p-nitrophenol conversion after 5 mins by spectrophotometry.
Usually pIC50 stands for the negative decadic logarithm of the IC50, by convention in mol/L. For `Cc1cc(S(=O)(=O)O)ccc1N1N=C(C(=O)O)CC1=O`, the pIC50 is 4.39.
Consider `CC(=O)c1c(C)oc2ccc(NS(=O)(=O)c3cccc(C(=O)O)c3)cc12`, for which the pIC50 was 3.75.
Same read-out and setting: under `CC(=O)N(c1ccc2oc3c(c2c1)CCCC3)S(=O)(=O)c1ccc(C(=O)O)cc1` stands 3.74.
Same read-out and setting: under `O=C(O)C1=NN(c2ccc(S(=O)(=O)O)cc2)C(=O)C1` stands 3.81.

In a further assay the target is T3, Tyrosine-protein phosphatase non-receptor type 1 (Homo sapiens, UniProt P18031).
T3 sequence (P18031 whole entry): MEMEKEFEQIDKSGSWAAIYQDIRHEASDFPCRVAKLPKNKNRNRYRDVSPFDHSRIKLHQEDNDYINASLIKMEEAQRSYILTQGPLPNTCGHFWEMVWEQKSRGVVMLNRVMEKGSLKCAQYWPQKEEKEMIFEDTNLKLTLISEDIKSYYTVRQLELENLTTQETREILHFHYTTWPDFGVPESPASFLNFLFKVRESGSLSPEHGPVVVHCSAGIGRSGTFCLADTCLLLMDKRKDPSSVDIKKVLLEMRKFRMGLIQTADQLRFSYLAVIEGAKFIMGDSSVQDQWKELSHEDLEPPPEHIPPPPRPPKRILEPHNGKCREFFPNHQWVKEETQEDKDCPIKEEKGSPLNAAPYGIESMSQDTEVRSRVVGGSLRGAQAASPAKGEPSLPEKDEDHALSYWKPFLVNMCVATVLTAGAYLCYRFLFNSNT
The assay can be described thus: Inhibition of PTP1B.
Compound `CC(=O)c1c(C)oc2ccc(NS(=O)(=O)c3cccc(C(=O)O)c3)cc12` showed a negative-log IC50 (pIC50) of 4.42.
The same measure, in the same setting: under `CC(=O)N(c1ccc2oc3c(c2c1)CCCC3)S(=O)(=O)c1ccc(C(=O)O)cc1` stands 3.92.

The target in another assay is Tyrosine-protein phosphatase non-receptor type 6 (Homo sapiens, UniProt P29350). The assay can be described thus: Inhibition of SHP1.
Sequence of Tyrosine-protein phosphatase non-receptor type 6 (P29350 whole entry): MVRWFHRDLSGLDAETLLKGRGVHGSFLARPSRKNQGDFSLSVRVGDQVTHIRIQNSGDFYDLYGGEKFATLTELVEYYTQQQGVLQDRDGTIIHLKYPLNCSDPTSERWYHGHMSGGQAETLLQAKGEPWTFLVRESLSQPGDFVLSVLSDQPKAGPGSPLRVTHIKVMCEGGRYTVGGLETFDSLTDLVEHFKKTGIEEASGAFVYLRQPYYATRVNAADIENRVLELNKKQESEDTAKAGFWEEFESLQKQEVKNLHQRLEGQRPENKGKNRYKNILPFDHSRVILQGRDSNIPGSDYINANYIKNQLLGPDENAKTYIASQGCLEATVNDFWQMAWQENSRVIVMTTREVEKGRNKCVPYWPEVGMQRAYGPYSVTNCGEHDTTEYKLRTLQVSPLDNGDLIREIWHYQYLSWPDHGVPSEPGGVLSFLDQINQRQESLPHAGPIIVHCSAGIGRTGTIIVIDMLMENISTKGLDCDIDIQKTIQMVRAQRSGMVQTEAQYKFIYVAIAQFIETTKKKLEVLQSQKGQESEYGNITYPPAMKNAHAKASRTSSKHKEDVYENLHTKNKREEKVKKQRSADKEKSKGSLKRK
In turn, `CC(=O)c1c(C)oc2ccc(NS(=O)(=O)c3cccc(C(=O)O)c3)cc12` gave a pIC50 of 4.07.
As to `CC(=O)N(c1ccc2oc3c(c2c1)CCCC3)S(=O)(=O)c1ccc(C(=O)O)cc1`, the pIC50 is 3.80.
